Reference: ChEMBL document CHEMBL3091420, “Synthesis and biochemical evaluation of highly enantiomerically pure (R,R)- and (S,S)-alexidine” (Bioorg Med Chem, 2013)
Where a name gives a salt, the structure may show the parent alone.

Target: Bcl-xL/BAK (Homo sapiens, UniProt Q07817+Q16611)
Test: Inhibition of Bcl-xL (1 to 206, delta 45 to 84)-BAK (unknown origin) protein interaction by fluorescence polarization assay

Chain of Bcl-xL/BAK (Q07817 whole entry): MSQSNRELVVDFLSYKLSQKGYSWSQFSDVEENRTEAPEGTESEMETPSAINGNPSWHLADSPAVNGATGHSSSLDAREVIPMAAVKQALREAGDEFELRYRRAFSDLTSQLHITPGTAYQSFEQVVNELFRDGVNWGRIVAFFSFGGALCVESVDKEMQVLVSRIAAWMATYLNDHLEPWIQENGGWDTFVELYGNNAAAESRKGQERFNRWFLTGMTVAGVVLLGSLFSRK
Chain of Bcl-xL/BAK (Q16611 whole entry): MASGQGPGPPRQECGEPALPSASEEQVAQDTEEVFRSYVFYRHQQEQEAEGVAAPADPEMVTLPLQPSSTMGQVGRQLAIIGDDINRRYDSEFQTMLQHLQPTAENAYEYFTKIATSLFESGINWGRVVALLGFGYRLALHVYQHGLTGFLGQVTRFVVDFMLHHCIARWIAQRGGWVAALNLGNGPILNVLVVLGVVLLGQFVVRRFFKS

IC50 [µM]	Structure (SMILES)
25.7	CCCC[C@H](CC)CNC(=N)NC(=N)NCCCCCCNC(=N)NC(=N)NC[C@@H](CC)CCCC
21.3	CCCC[C@@H](CC)CNC(=N)NC(=N)NCCCCCCNC(=N)NC(=N)NC[C@H](CC)CCCC
18.3	CCCCC(CC)CNC(=N)NC(=N)NCCCCCCNC(=N)NC(=N)NCC(CC)CCCC (mixture of isomers) [ALEXIDINE DIHYDROCHLORIDE]
